From the supplement of paper PMC10307832

Experiments:
Assay in all cases: relative viability (nuclei count vs DMSO), 5 days (fraction); higher = more cells survive
Dactolisib + Foretinib = compound: Cn1c(=O)n(-c2ccc(C(C)(C)C#N)cc2)c2c3cc(-c4cnc5ccccc5c4)ccc3ncc21 [Dactolisib] + COc1cc2c(Oc3ccc(NC(=O)C4(C(=O)Nc5ccc(F)cc5)CC4)cc3F)ccnc2cc1OCCCN1CCOCC1 [Foretinib] (partner 0.25 µM)
In short: (§1)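 Relative viability is defined as nuclei in treated wells over nuclei in vehicle wells. Duplicate plates were run and medians reported. Lung cancer cell lines in 1536-well plates were dosed by pin tool one day after seeding, with one drug or with a fixed anchor-drug dose plus five library-drug doses (not always all listed) in √10 steps, and nuclei were counted after 5 days.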

AZ505 + Dasatinib = compound: C1CCC(CC1)N(CCNCCC2=C3C(=C(C=C2)O)NC(=O)CO3)C(=O)CCNCCC4=CC(=C(C=C4)Cl)Cl [AZ505] + Cc1nc(Nc2ncc(C(=O)Nc3c(C)cccc3Cl)s2)cc(N2CCN(CCO)CC2)n1 [Dasatinib] (partner 0.075 µM)
In short: as §1

AZ505 + Alpelisib = compound: C1CCC(CC1)N(CCNCCC2=C3C(=C(C=C2)O)NC(=O)CO3)C(=O)CCNCCC4=CC(=C(C=C4)Cl)Cl [AZ505] + Cc1nc(NC(=O)N2CCC[C@H]2C(N)=O)sc1-c1ccnc(C(C)(C)C(F)(F)F)c1 [Alpelisib] (partner 2 µM)
In short: as §1

Dactolisib + Crizotinib = compound: Cn1c(=O)n(-c2ccc(C(C)(C)C#N)cc2)c2c3cc(-c4cnc5ccccc5c4)ccc3ncc21 [Dactolisib] + C[C@@H](Oc1cc(-c2cnn(C3CCNCC3)c2)cnc1N)c1c(Cl)ccc(F)c1Cl [Crizotinib] (partner 1 µM)
In short: as §1

| Cell Line | relative viability (Dactolisib + Foretinib; first compound 0.002 µM) | relative viability (Dactolisib + Foretinib; first compound 0.006325 µM) | relative viability (Dactolisib + Foretinib; first compound 0.02 µM) | relative viability (Dactolisib + Foretinib; first compound 0.06325 µM) | relative viability (Dactolisib + Foretinib; first compound 0.2 µM) | relative viability (AZ505 + Dasatinib; first compound 0.08 µM) | relative viability (AZ505 + Dasatinib; first compound 0.253 µM) | relative viability (AZ505 + Dasatinib; first compound 0.8 µM) | relative viability (AZ505 + Dasatinib; first compound 2.53 µM) | relative viability (AZ505 + Dasatinib; first compound 8 µM) | relative viability (AZ505 + Alpelisib; first compound 0.08 µM) | relative viability (AZ505 + Alpelisib; first compound 0.253 µM) | relative viability (AZ505 + Alpelisib; first compound 0.8 µM) | relative viability (AZ505 + Alpelisib; first compound 2.53 µM) | relative viability (AZ505 + Alpelisib; first compound 8 µM) | relative viability (Dactolisib + Crizotinib; first compound 0.002 µM) | relative viability (Dactolisib + Crizotinib; first compound 0.006325 µM) | relative viability (Dactolisib + Crizotinib; first compound 0.02 µM) | relative viability (Dactolisib + Crizotinib; first compound 0.06325 µM) | relative viability (Dactolisib + Crizotinib; first compound 0.2 µM) |
| --- | --- | --- | --- | --- | --- | --- | --- | --- | --- | --- | --- | --- | --- | --- | --- | --- | --- | --- | --- | --- |
| NCI-H520 | 0.736 | 0.507 | 0.464 | 0.278 | 0.198 | 0.198 | 0.217 | 0.181 | 0.229 | 0.26 | 0.92 | 0.829 | 0.862 | 0.84 | 0.99 | 0.813 | 0.658 | 0.539 | 0.207 | 0.174 |
| NCI-H596 | 0.83 | 0.809 | 0.473 | 0.316 | 0.242 | 0.605 | 0.577 | 0.591 | 0.657 | 0.56 | 0.483 | 0.453 | 0.49 | 0.626 | 0.52 | 0.974 | 0.874 | 0.742 | 0.595 | 0.395 |
| NCI-H647 | 1.15 | 1.18 | 1.16 | 0.211 | 0.395 | 0.233 | 0.104 | 0.158 | 0.194 | 0.162 | 1.04 | 1.46 | 1.05 | 1.07 | 1.08 | 1.21 | 0.848 | 0.5 | 0.133 | 0.124 |
| NCI-H650 | 0.981 | 1.02 | 1.05 | 0.712 | 0.426 | 0.425 | 0.408 | 0.447 | 0.547 | 0.452 | 1.03 | 1.31 | 1.03 | 1.14 | 1.21 | 0.627 | 0.747 | 0.752 | 0.519 | 0.393 |
| NCI-H661 | 1.04 | 1.01 | 0.977 | 0.439 | 0.459 | 0.862 | 0.932 | 0.731 | 0.958 | 0.964 | 0.666 | 0.493 | 0.738 | 0.81 | 0.907 | 0.987 | 0.979 | 1.14 | 0.779 | 0.613 |
| NCI-H727 | 0.906 | 0.882 | 0.762 | 0.4 | 0.425 | 0.28 | 0.274 | 0.372 |  | 0.504 | 0.535 | 0.621 | 0.505 | 0.598 | 0.694 | 0.915 | 0.671 | 0.666 | 0.354 | 0.374 |
| NCI-H838 | 1.1 | 0.876 | 0.606 | 0.288 | 0.342 | 0.233 | 0.273 | 0.298 | 0.28 | 0.308 | 0.988 | 0.966 | 0.943 | 0.928 | 1.01 | 0.798 | 0.586 | 0.534 | 0.275 | 0.216 |
